Assays:
[1] = system: TACE; assay: TACE assay in rat primary neurons; format: cell-based; conditions: primary neurons from rat hippocampus; FIGS. 9b, c
Protocol: TACE Assay. TACE was measured by incubating 5 μl cell homogenate, 3 μl buffer (50 mM Tris-HCl 7.4 plus 25 mM NaCl plus 4% glycerol), and 1 of 100 μM TACE substrate IV (Aβz-LAQAVRSSSR-DPa) (Calbiochem) for 20 min at 37° in 1.5-ml polypropylene centrifuge tubes (Jin et al., Anal Biochem. 2002; 302: 269-75). The reaction was stopped by cooling to 4° C. The samples were diluted to 1 ml and the fluorescence was rapidly measured (ex=320 nm, em=420 nm) in a Spex Fluorolog 2 spectrofluorometer.

[2] = system: other PKC isoforms; assay: Protein kinase C assay, purified PKC isozymes: other isoforms; format: biochemical; conditions: data not shown
Protocol: (§1) Protein kinase C assay. Rat hippocampal cells were cultured and scraped in 0.2 ml homogenization buffer (20 triM Tris-HCl, pH 7.4, 50 mM NaF, 1 μg/ml leupeptin, and 0.1 mM PMSF) and homogenized by sonication in a Marsonix micro-probe sonicator (5 see, 10W). To measure PKC, 10 ul of cell homogenate or purified. PKC isozyme (purchased from Calbiochem) was incubated for 15 min at 37° C. in the presence of 10 μM histones, 4.89 mM CaCl2, 1.2 μg/μl phosphatidyl-L-serine, 0.18 μg/μl 1,2-dioctanoyl-sn-glycerol, 10 mM MgCl2, 20 mM HEPES (pH 7.4), 0.8 mM EDTA, 4 mM EGTA, 4% glycerol, 8 μg/ml aprotinin, 8 μg/ml leupeptin, and 2 mM benzamidine. 0.5 μCi [^γ-32P]ATP was added and ^32P-phosphoprotein formation was measured by adsorption onto phosphocellulose as described previously. Nelson and Alkon, J. Neurochemistry. 1995; 65: 2350-57. For measurements of activation by BR-101 (DCP-LA) and similar compounds, PKC activity was measured in the absence of diacylglycerol and phosphatidyl serine, as described by Kanno et al., and PKC δ, ε, η, and μ were measured in the absence of added EGTA and CaCl2, as described by Kanno et al., J. Lipid Res. 2006; 47: 1146-50. […]
(§2) To determine their PKC isozyme specificity, the new compounds were preincubated with purified PKC for five minutes and the PKC activity was measured radiometrically.

[3] = target: T1, PKCδ (Homo sapiens, UniProt Q05655); assay: Protein kinase C assay, purified PKC isozymes: PKCδ; format: biochemical; conditions: higher concentrations, about 1-100 μM; data not shown
T1 construct: purchased Calbiochem
Protocol: as §1, §2

[4] = target: T2, PKCε (Homo sapiens, UniProt Q02156); conditions: Kanno et al.; cited from earlier work
T2 construct: purchased Calbiochem
T2 sequence (Q02156 1-737): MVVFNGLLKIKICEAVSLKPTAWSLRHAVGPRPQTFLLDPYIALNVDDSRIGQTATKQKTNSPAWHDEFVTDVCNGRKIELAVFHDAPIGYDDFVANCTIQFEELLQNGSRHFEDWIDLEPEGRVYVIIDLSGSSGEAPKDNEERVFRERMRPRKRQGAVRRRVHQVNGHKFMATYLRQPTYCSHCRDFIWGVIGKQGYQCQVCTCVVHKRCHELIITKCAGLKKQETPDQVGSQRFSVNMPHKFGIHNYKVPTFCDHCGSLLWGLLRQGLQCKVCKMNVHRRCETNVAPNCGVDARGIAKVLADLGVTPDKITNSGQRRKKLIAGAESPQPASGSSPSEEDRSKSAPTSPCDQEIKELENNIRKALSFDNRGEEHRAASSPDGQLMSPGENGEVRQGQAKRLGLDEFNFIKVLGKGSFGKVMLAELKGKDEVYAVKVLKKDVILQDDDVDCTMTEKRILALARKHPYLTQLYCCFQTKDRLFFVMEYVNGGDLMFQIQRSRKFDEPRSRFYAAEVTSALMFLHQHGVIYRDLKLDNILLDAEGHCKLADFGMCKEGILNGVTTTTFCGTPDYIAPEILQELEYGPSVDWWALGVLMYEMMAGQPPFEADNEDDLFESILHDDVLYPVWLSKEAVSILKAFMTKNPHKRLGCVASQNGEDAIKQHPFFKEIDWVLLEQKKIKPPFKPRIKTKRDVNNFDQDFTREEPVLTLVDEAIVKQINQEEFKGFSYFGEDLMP

T1 sequence (Q05655 whole entry): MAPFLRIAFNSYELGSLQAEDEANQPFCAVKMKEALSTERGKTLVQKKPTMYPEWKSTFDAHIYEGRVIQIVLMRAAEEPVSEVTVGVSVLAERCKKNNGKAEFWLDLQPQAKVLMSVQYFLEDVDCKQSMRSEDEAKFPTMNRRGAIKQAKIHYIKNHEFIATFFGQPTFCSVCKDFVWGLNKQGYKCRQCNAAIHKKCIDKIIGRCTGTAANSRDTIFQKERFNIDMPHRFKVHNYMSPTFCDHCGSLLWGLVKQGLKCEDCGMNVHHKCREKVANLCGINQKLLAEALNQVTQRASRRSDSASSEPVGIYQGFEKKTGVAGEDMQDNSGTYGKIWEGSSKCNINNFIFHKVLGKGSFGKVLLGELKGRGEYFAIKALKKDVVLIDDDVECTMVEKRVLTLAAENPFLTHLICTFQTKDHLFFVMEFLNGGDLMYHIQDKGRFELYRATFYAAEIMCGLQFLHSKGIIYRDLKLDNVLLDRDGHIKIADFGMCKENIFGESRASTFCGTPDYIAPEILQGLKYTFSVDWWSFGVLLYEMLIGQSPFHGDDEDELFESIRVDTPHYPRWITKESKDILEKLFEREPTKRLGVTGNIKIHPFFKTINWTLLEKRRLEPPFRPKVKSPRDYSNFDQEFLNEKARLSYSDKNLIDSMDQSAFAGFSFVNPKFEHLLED

SMILES: CCC1CC1CC1CC1CC1CC1CC1CC1CC1CC1CC1CC1CCC(=O)OC (stereo not shown) [BR-111, methyl-3-(2-((2-((2-((2-((2-((2-ethylcyclopropyl)methyl)cyclopropyl)methyl)cyclopropyl)methyl)-cyclopropyl)methyl)cyclopropyl)methyl)cyclopropyl)propanoate]
- TACE activity [1]: small increases

SMILES: CCCCCC1CC1CC1CC1CCCCCCCC(=O)O (stereo not shown) [BR-101, 8-[2-(2-pentyl-cyclopropylmethyl)-cyclopropyl]-octanoic acid]
- effects on the other PKC isoforms [2]: relatively small effects
- effect on PKCδ [3]: partially inhibited
- potency for PKCε over other PKC isozymes [4]: greater than 7 fold

— patent publication US11820745B2, “PKC-activating compounds for the treatment of neurodegenerative diseases” (Synaptogenix, Inc., priority 2008, dated 2023)
